According to US20260053932A1, “COMPOUNDS AND METHODS FOR THE TARGETED DEGRADATION OF ANDROGEN RECEPTOR AND ASSOCIATED METHODS OF USE” (Arvinas Operations, Inc., priority 2020, published 2026):
Read-outs that look alike come from different tables or passages of the source.

Tested on: androgen receptor (AR) in LNCaP and/or VCaP cells
Test: Androgen Receptor ELISA assay (AR degradation)
Format: cell-based
How it was run: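 VCaP cells grown ≥3 days, then treated 5 h with compound in media containing 1 nM R1881 (10× stock). Cells lysed and AR quantified by sandwich ELISA (mouse AR detection Ab, HRP anti-mouse, TMB). DC50 and Dmax derived from AR degradation.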

[1] = degradation of AR ELISA in LNCaP and/or VCaP cells, Table 2C, read-out: DC50 Code*
[2] = LNCaP and/or VCaP cells, 5 hours incubation, media with R1881, read-out: DC50 Code* (degradation of AR ELISA)

Row | Compound | DC50 [1] | DC50 [2]
1 | COc1cc(O[C@H]2C(C)(C)[C@H](NC(=O)c3ccc(N4CCC(CN(C(C)C)[C@H]5C[C@H](Oc6cc(OC)c7c(c6)C(=O)N(C6CCC(=O)NC6=O)C7=O)C5)CC4)nn3)C2(C)C)ccc1C#N (stereo partly drawn) [compound 102, N-((1r,3r)-3-(4-cyano-3-methoxyphenoxy)-2,2,4,4-tetramethylcyclobutyl)-6-(4-((((1r,3r)-3-((2-(2,6-dioxopiperidin-3-yl)-7-methoxy-1,3-dioxoisoindolin-5-yl)oxy)cyclobutyl) (isopropyl)amino)methyl)piperidin-1-yl)pyridazine-3-carboxamide] | < 1 nM | 
2 | COc1cc(O[C@H]2CC[C@H](NC(=O)c3cnc(N4CC(CN(C(C)C)[C@H]5CC[C@H](Oc6ccc7c(c6)C(=O)N(C6CCC(=O)NC6=O)C7=O)CC5)C4)cn3)CC2)ccc1C#N (stereo partly drawn) [Compound 22, N-((1r,4r)-4-(4-cyano-3-methoxyphenoxy)cyclohexyl)-5-(3-((((1r,4r)-4-((2-(2,6-dioxopiperidin-3-yl)-1,3-dioxoisoindolin-5-yl)oxy)cyclohexyl) (isopropyl)amino)methyl)azetidin-1-yl)pyrazine-2-carboxamide] |  | < 1 nM
3 | COCCN(CC1CCN(c2nc(C)c(C(=O)N[C@H]3C(C)(C)[C@H](Oc4ccc(C#N)c(OC)c4)C3(C)C)c(C)n2)CC1)[C@H]1C[C@H](Oc2cc(OC)c3c(c2)C(=O)N(C2CCC(=O)NC2=O)C3=O)C1 (mixture of isomers) [compound 232, rac-N-((1r,3r)-3-(4-cyano-3-methoxyphenoxy)-2,2,4,4-tetramethylcyclobutyl)-2-(4-((((1r,3r)-3-((2-(2,6-dioxopiperidin-3-yl)-7-methoxy-1,3-dioxoisoindolin-5-yl)oxy)cyclobutyl)(2-methoxyethyl)amino)methyl)piperidin-1-yl)-4,6-dimethylpyrimidine-5-carboxamide] | < 1 nM | 
4 | COCCOCCOCCOCCOCCN(CC1CCN(c2ncc(C(=O)N[C@H]3C(C)(C)[C@H](Oc4cc(C)c(C#N)c(C)c4)C3(C)C)cn2)CC1)[C@H]1C[C@H](Oc2ccc3c(c2)C(=O)N(C2CCC(=O)NC2=O)C3=O)C1 (stereo partly drawn) [compound 155, N-((1r,3r)-3-(4-cyano-3,5-dimethylphenoxy)-2,2,4,4-tetramethylcyclobutyl)-2-(4-(2-((1r,3r)-3-((2-(2,6-dioxopiperidin-3-yl)-1,3-dioxoisoindolin-5-yl)oxy)cyclobutyl)-5,8,11,14,17-pentaoxa-2-azaoctadecyl)piperidin-1-yl)pyrimidine-5-carboxamide] | < 1 nM | 
5 | CC1(C)[C@H](NC(=O)c2ccc(N3CCC(CN(CCN4CCOCC4)[C@H]4C[C@H](Oc5ccc6c(c5)C(=O)N(C5CCC(=O)NC5=O)C6=O)C4)CC3)cc2)C(C)(C)[C@H]1Oc1ccc(C#N)c(Cl)c1 (stereo partly drawn) [compound 219, N-((1r,3r)-3-(3-chloro-4-cyanophenoxy)-2,2,4,4-tetramethylcyclobutyl)-4-(4-((((1r,3r)-3-((2-(2,6-dioxopiperidin-3-yl)-1,3-dioxoisoindolin-5-yl)oxy)cyclobutyl)(2-morpholinoethyl)amino)methyl)piperidin-1-yl)benzamide] | < 1 nM | 
6 | Cc1cc(O[C@H]2CC[C@H](NC(=O)c3cnc(N4CCC(CN(C(C)C)[C@H]5C[C@H](Oc6cc(F)c7c(c6)C(=O)N(C6CCC(=O)NC6=O)C7=O)C5)CC4)cn3)CC2)cc(C)c1C#N (stereo partly drawn) [Compound 46, N-((1r,4r)-4-(4-cyano-3,5-dimethylphenoxy)cyclohexyl)-5-(4-((((1r,3r)-3-((2-(2,6-dioxopiperidin-3-yl)-7-fluoro-1,3-dioxoisoindolin-5-yl)oxy)cyclobutyl) (isopropyl)amino)methyl)piperidin-1-yl)pyrazine-2-carboxamide] |  | < 1 nM

Further lines, results first:

Row | DC50 [1] | DC50 [2] | Compound
7 | < 1 nM |  | Cc1cc(O[C@H]2C(C)(C)[C@H](NC(=O)c3cnc(N4CCC(CN(CCN5CCOCC5)[C@H]5C[C@H](Oc6ccc7c(c6)C(=O)N(C6CCC(=O)NC6=O)C7=O)C5)CC4)nc3)C2(C)C)cc(C)c1C#N (stereo partly drawn) [compound 90, N-((1r,3r)-3-(4-cyano-3,5-dimethylphenoxy)-2,2,4,4-tetramethylcyclobutyl)-2-(4-((((1r,3r)-3-((2-(2,6-dioxopiperidin-3-yl)-1,3-dioxoisoindolin-5-yl)oxy)cyclobutyl)(2-morpholinoethyl)amino)methyl)piperidin-1-yl)pyrimidine-5-carboxamide]
8 | < 1 nM |  | Cc1cc(O[C@H]2C(C)(C)[C@H](NC(=O)c3ccc(CN4CCOC[C@@H]4CN(C)[C@H]4C[C@H](Oc5ccc6c(c5)C(=O)N(C5CCC(=O)NC5=O)C6=O)C4)cc3)C2(C)C)cc(C)c1C#N (stereo partly drawn) [compound 148, N-((1r,3R)-3-(4-cyano-3,5-dimethylphenoxy)-2,2,4,4-tetramethylcyclobutyl)-4-(((3R)-3-((((1r,3R)-3-((2-(2,6-dioxopiperidin-3-yl)-1,3-dioxoisoindolin-5-yl)oxy)cyclobutyl) (methyl)amino)methyl)morpholino)methyl) benzamide]
9 | < 1 nM |  | Cc1cc(O[C@H]2C(C)(C)[C@H](NC(=O)c3cnc(N4CC(CN[C@H]5C[C@H](Oc6ccc7c(c6)C(=O)N(C6CCC(=O)NC6=O)C7=O)C5)C4)cn3)C2(C)C)cc(C)c1C#N (stereo partly drawn) [compound 118, N-((1r,3r)-3-(4-cyano-3,5-dimethylphenoxy)-2,2,4,4-tetramethylcyclobutyl)-5-(3-((((1r,3r)-3-((2-(2,6-dioxopiperidin-3-yl)-1,3-dioxoisoindolin-5-yl)oxy)cyclobutyl)amino)methyl)azetidin-1-yl)pyrazine-2-carboxamide]
10 | < 1 nM |  | Cc1cc(O[C@H]2C(C)(C)[C@H](NC(=O)c3cnc(N4CCC5(CC4)CN([C@H]4C[C@H](Oc6ccc7c(c6)C(=O)N(C6CCC(=O)NC6=O)C7=O)C4)CCO5)cn3)C2(C)C)cc(C)c1C#N (mixture of isomers) [compound 236, rac-N-((1r,3r)-3-(4-cyano-3,5-dimethylphenoxy)-2,2,4,4-tetramethylcyclobutyl)-5-(4-((1r,3r)-3-((2-(2,6-dioxopiperidin-3-yl)-1,3-dioxoisoindolin-5-yl)oxy)cyclobutyl)-1-oxa-4,9-diazaspiro[5.5]undecan-9-yl)pyrazine-2-carboxamide]
11 | < 1 nM |  | Cc1cc(O[C@H]2C(C)(C)[C@H](NC(=O)c3cnc(N4CC(CN[C@H]5C[C@H](Oc6ccc7c(c6)C(=O)N(C6CCC(=O)NC6=O)C7=O)C5)C4)nc3)C2(C)C)cc(C)c1C#N (stereo partly drawn) [compound 82, N-((1r,3r)-3-(4-cyano-3,5-dimethylphenoxy)-2,2,4,4-tetramethylcyclobutyl)-2-(3-((((1r,3r)-3-((2-(2,6-dioxopiperidin-3-yl)-1,3-dioxoisoindolin-5-yl)oxy)cyclobutyl)amino)methyl)azetidin-1-yl)pyrimidine-5-carboxamide]
12 | < 1 nM |  | Cc1cc(O[C@H]2C(C)(C)[C@H](NC(=O)c3ccc(N4CCC(CN(C)[C@H]5CC[C@H](Oc6ccc7c(c6)C(=O)N(C6CCC(=O)NC6=O)C7=O)C5)CC4)cc3)C2(C)C)cc(C)c1C#N (stereo partly drawn) [compound 154, N-((1r,3S)-3-(4-cyano-3,5-dimethylphenoxy)-2,2,4,4-tetramethylcyclobutyl)-4-(4-((((1S,3S)-3-((2-(2,6-dioxopiperidin-3-yl)-1,3-dioxoisoindolin-5-yl)oxy)cyclopentyl) (methyl)amino)methyl)piperidin-1-yl)benzamide]
